In patent publication US20070179161A1, “Pyrazolopyrimidine compounds and their use in medicine” (VERNALIS (CAMBRIDGE) LIMITED., priority 2003, published 2007) one finds IC50 data, which are given here for 31 molecules.

As usually defined, the IC50 is the concentration needed to halve the response being measured.

SMILES strings stand for the structures. Where a name gives a salt, the structure may show the parent alone.

What all share (format): biochemical
Experiment [1] deals with CDK-2 enzyme, complexed with cyclin A (Homo sapiens, UniProt P24941). The experiment can be described thus: CDK2 enzyme inhibition assay (33P phosphorylation of peptide […], filter plate). The following applies: CDK-2/cyclin A, 0.1 mM ATP, 40 min at 30° C. As for the experimental part:
(§1) The assay mixture containing the inhibitor and CDK-2 enzyme, complexed with cyclin A (0.4 U/ml) was mixed together in a microtiter plate in a final volume of 50 μl and incubated for 40 min at 30° C. The assay mixture contained 0.1 mM unlabeled ATP, 0.01 μCi/μl ^33P-γ-ATP, 0.03 mM peptide, 0.1 mg/ml BSA, 7.5 mM magnesium acetate, 50 mM HEPES-NaOH, pH 7.5. The reaction was stopped by adding 50 μl of 50 mM phosphoric acid. 90 μl of the mixture were transferred to a pre-wetted 96-well Multiscreen MAPHNOB filtration plate (Millipore) and filtered on a vacuum manifold. […] The filtration plate was dried for 10 min at 65° C., scintillant added and phosphorylated peptide quantified in a scintillation counter (Trilux, PerkinElmer)
HEPES is N-[2-Hydroxyethyl]piperazine-N′-[2-ethanesulfonic acid] BSA is bovine serum albumin.

In a further experiment the target is T1, GST-Chk1 enzyme (Homo sapiens, UniProt O14757).
T1 sequence (O14757 1-476): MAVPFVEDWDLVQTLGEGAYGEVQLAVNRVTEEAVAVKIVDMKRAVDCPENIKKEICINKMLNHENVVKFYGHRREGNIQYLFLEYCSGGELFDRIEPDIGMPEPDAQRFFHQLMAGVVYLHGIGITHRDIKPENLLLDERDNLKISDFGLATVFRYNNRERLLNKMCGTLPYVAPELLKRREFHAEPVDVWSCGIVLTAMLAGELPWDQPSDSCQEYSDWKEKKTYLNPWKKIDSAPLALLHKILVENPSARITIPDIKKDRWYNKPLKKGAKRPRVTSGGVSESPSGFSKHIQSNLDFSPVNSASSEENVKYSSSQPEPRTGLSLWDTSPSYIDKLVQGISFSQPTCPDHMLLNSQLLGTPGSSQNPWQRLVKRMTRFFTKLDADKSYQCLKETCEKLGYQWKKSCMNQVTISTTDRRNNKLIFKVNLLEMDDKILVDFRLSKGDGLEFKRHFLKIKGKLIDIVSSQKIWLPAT
Nature of the experiment: Chk1 kinase inhibition assay (33P phosphorylation of Chktide, filter plate). Particulars: 0.01 mM ATP, 11 nM GST-Chk1, 40 minutes at 30° C.; read-out: Chk1 IC50. As for the experimental part:
The assay mixture containing the inhibitor and Chk1 enzyme was mixed together in a microtiter plate in a final volume of 50 μl and incubated for 40 minutes at 30° C.
The reaction was stopped by adding 50 μl of 50 mM phosphoric acid. 90 μl of the mixture was transferred to a pre-wetted 96-well Multiscreen MAPHNOB filtration plate (Millipore) and filtered on a vacuum manifold. […] The filtration plate was dried for 10 min at 65° C., scintillant added and phosphorylated peptide quantified in a scintillation counter (Trilux, PerkinElmer)

Another experiment has as its target T2, PDK1 enzyme (Homo sapiens, UniProt O15530).
T2 sequence (O15530 1-556): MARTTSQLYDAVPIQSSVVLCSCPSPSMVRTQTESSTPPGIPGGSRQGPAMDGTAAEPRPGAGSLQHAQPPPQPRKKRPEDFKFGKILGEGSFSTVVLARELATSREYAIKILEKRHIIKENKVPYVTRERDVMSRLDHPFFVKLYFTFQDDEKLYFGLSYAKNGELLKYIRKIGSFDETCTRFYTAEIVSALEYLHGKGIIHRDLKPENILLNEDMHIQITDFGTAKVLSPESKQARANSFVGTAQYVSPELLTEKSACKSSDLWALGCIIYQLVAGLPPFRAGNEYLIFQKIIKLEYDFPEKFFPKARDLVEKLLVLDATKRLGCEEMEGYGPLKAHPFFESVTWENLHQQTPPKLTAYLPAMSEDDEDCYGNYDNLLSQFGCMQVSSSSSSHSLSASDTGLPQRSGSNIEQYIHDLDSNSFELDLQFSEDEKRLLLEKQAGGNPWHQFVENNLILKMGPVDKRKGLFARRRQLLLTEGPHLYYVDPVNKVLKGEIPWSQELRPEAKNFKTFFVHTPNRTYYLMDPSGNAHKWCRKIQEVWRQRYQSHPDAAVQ
The experiment can be described thus: PDK1 kinase inhibition assay (33P phosphorylation of synthetic peptide, filter plate). Particulars: 0.01 mM ATP, 60 min at 30° C.; read-out: PDK1 IC50. As for the experimental part:
as §1, with “and PDK1 enzyme” for “and CDK-2 enzyme, complexed with cyclin A (0.4 U/ml)”, “for 60” for “for 40”, “contained 0.01” for “contained 0.1”, “^33P-γ-ATP, 0.075” for “^33P-γ-ATP, 0.03”, “acetate, 0.05M Tris.HCl,” for “acetate, 50 mM HEPES-NaOH,”, “pH 7.5, 0.5% 2-mercaptoethanol.” for “pH 7.5.”

Turning to `Fc1ccc(Nc2cc(-c3ccccc3)nc3ccnn23)cc1` [Example 1, 5-Phenyl-7-(4-fluorophenylamino)pyrazolo[1,5-a]pyrimidine hydrochloride], the IC50 was 6.09 µM in experiment [1], more than 200 µM at GST-Chk1 enzyme and more than 200 µM on PDK1 enzyme.
For `Cc1noc(C)c1-c1cc(Nc2ccc(F)cc2)n2nccc2n1` [Example 2, 5-(3,5-Dimethylisoxazole)-7-(4-fluorophenylamino)pyrazolo[1,5-a]pyrimidine], the IC50 in experiment [1] is 13.4 µM; on GST-Chk1 enzyme, more than 200 µM; on PDK1 enzyme, more than 200 µM.
For `Oc1ccc(-c2cc(Nc3ccccc3)n3nccc3n2)cc1` [Example 4], the IC50 is 3.76 µM in experiment [1], more than 200 µM at GST-Chk1 enzyme and more than 200 µM at PDK1 enzyme.
Turning to `Oc1ccc(-c2cc(Nc3cccc(Cl)c3)n3nccc3n2)cc1` [Example 5], the IC50 in experiment [1] is 3.96 µM; at GST-Chk1 enzyme it was more than 200 µM; at PDK1 enzyme, more than 200 µM.
As to `Oc1cccc(-c2cc(Nc3ccccc3)n3nccc3n2)c1` [Example 6], the concentration for half-maximal inhibition (IC50) in experiment [1] was 5.65 µM; on GST-Chk1 enzyme, more than 200 µM; at PDK1 enzyme, more than 200 µM.
For the molecule `Cc1cccc(-c2cc(NCc3ccncc3)n3nccc3n2)c1` [Example 7], the results for the IC50 (in experiment [1]; at GST-Chk1 enzyme; at PDK1 enzyme) were 7.19 µM, more than 200 µM and more than 200 µM, respectively.
As to `COc1ccc(CNc2cc(-c3ccsc3)nc3ccnn23)cc1` [Example 8], the IC50 in experiment [1] is 7.55 µM; at GST-Chk1 enzyme it was more than 200 µM; on PDK1 enzyme, more than 200 µM.
`O=S(=O)(c1ccc(Nc2cc(Cl)nc3ccnn23)cc1)N1CCOCC1` [Example 9]: the half-maximal inhibitory concentration (IC50) in experiment [1] is 0.99 µM; at GST-Chk1 enzyme it was more than 200 µM; on PDK1 enzyme it was more than 200 µM.
As for `O=S(=O)(Nc1ccccn1)c1ccc(Nc2cc(Cl)nc3ccnn23)cc1` [Example 10], the IC50 in experiment [1] was 1.63 µM; at GST-Chk1 enzyme, more than 200 µM; at PDK1 enzyme, more than 200 µM.
Take `O=S(=O)(Nc1nccs1)c1ccc(Nc2cc(Cl)nc3ccnn23)cc1` [Example 11]: the IC50 is 1.31 µM in experiment [1], more than 200 µM on GST-Chk1 enzyme and more than 200 µM on PDK1 enzyme.
As for `NS(=O)(=O)c1ccc(Nc2cc(Cl)nc3ccnn23)cc1` [Example 12], the IC50 is 0.72 µM in experiment [1], more than 200 µM at GST-Chk1 enzyme and more than 200 µM on PDK1 enzyme.
For the molecule `Cc1cccc(-c2cc(Nc3ccc(S(=O)(=O)N4CCOCC4)cc3)n3nccc3n2)c1` [Example 13], the concentration for half-maximal inhibition (IC50) is 1.76 µM in experiment [1], more than 200 µM on GST-Chk1 enzyme and more than 200 µM at PDK1 enzyme.
Take `O=S(=O)(Nc1nccs1)c1ccc(Nc2cc(OC3CCCCC3)nc3ccnn23)cc1` [Example 14]: the IC50 was 0.59 µM in experiment [1], more than 200 µM on GST-Chk1 enzyme and 24.6 µM on PDK1 enzyme.
Taken in the same sequence, the figures for `O=S(=O)(c1ccc(Nc2ccnc3ccnn23)cc1)N1CCOCC1` [Example 16] were 3.35 µM, more than 200 µM and more than 200 µM.
For the molecule `Cc1cccc(-c2cc(Nc3ccc(S(=O)(=O)Nc4nccs4)cc3)n3nccc3n2)c1` [Example 17], the figures for the IC50 (in experiment [1]; on GST-Chk1 enzyme; at PDK1 enzyme) were 3.17 µM, more than 200 µM and 31.6 µM, respectively.
Taken in the same sequence, the figures for `Cc1cccc(-c2cc(Nc3ccc(S(=O)(=O)Nc4ccccn4)cc3)n3nccc3n2)c1` [Example 18] were 0.96 µM, 52.4 µM and more than 200 µM.
As for `NS(=O)(=O)c1ccc(Nc2ccnc3ccnn23)cc1` [Example 20], the values for the IC50 (in experiment [1]; at GST-Chk1 enzyme; on PDK1 enzyme) were 1.76 µM, more than 200 µM and more than 200 µM, respectively.
`CS(=O)(=O)c1ccc(Nc2cc(OC3CCCCC3)nc3ccnn23)cc1` [Example 21]: the 50% inhibitory concentration (IC50) was 1.32 µM in experiment [1], more than 200 µM on GST-Chk1 enzyme and more than 200 µM on PDK1 enzyme.
For `NS(=O)(=O)c1ccc(Nc2cc(OC3CCCCC3)nc3ccnn23)cc1` [Example 22], the IC50 in experiment [1] was 0.3 µM; at GST-Chk1 enzyme, more than 200 µM; on PDK1 enzyme it was 70.3 µM.
For `CS(=O)(=O)c1ccc(Nc2cc(Cl)nc3c(Cc4ccccc4)cnn23)cc1` [Example 23], the IC50 (in experiment [1]; on GST-Chk1 enzyme; on PDK1 enzyme) was more than 200 µM in each case.
Turning to `CN(C)S(=O)(=O)c1ccc(Nc2cc(N[C@H]3CC[C@H](N)CC3)nc3c(Br)cnn23)cc1` [Example 31, 3-bromo-5-(trans-4-aminocyclohexylamino)-7-(4-(N,N-dimethylsulphonamido)phenylamino)pyrazolo[1,5-a]pyrimidine], the IC50 in experiment [1] was found to be 0.008 µM; on GST-Chk1 enzyme, 1.27 µM; on PDK1 enzyme, 0.325 µM.
For the molecule `CC(C)c1cnn2c(Nc3ccc(S(N)(=O)=O)cc3)cc(Cl)nc12` [Example 32], the results for the IC50 (in experiment [1]; on GST-Chk1 enzyme; on PDK1 enzyme) were 0.062 µM, more than 200 µM and more than 200 µM, respectively.
In the case of `CC(C)c1cnn2c(Nc3ccc(S(=O)(=O)N4CCC(O)CC4)cc3)cc(Cl)nc12` [Example 33], the IC50 in experiment [1] was 0.271 µM; on GST-Chk1 enzyme it was more than 200 µM; on PDK1 enzyme it was more than 200 µM.
For the molecule `CC(C)c1cnn2c(Nc3ccc(S(=O)(=O)N(C)CCO)cc3)cc(Cl)nc12` [Example 34], the figures for the IC50 (in experiment [1]; on GST-Chk1 enzyme; on PDK1 enzyme) were 0.127 µM, more than 200 µM and more than 200 µM, respectively.
Consider `CC(C)c1cnn2c(Nc3ccc(S(=O)(=O)NCC4CCCO4)cc3)cc(Cl)nc12` (centres unmarked) [Example 35], for which the figures for the IC50 (in experiment [1]; at GST-Chk1 enzyme; on PDK1 enzyme) were 0.191 µM, more than 200 µM and more than 200 µM, respectively.
On to `COCCNS(=O)(=O)c1ccc(Nc2cc(Cl)nc3c(C(C)C)cnn23)cc1` [Example 36], for which the IC50 is 0.715 µM in experiment [1], more than 200 µM at GST-Chk1 enzyme and more than 200 µM on PDK1 enzyme.
On to `CC(C)c1cnn2c(Nc3ccc(S(=O)(=O)NCCO)cc3)cc(Cl)nc12` [Example 37], for which the IC50 was 1.51 µM in experiment [1], more than 200 µM on GST-Chk1 enzyme and more than 200 µM on PDK1 enzyme.
`CC(C)c1cnn2c(Nc3ccc(S(C)(=O)=O)cc3)ccnc12` [Example 38]: the half-maximal inhibitory concentration (IC50) in experiment [1] is 0.313 µM; on GST-Chk1 enzyme, more than 200 µM; on PDK1 enzyme, more than 200 µM.
As for `CC(C)c1cnn2c(Nc3ccc(S(=O)(=O)N(C)CCO)cc3)cc(OCCN(C)C)nc12` [Example 39], the half-inhibitory concentration (IC50) in experiment [1] was 0.403 µM; on GST-Chk1 enzyme, 80.8 µM; on PDK1 enzyme, more than 200 µM.
Taken in the same sequence, the figures for `CC(C)COc1cc(Nc2ccc(S(=O)(=O)N(C)C)cc2)n2ncc(C(C)C)c2n1` [Example 40] were 1.16 µM, more than 200 µM and more than 200 µM.
As for `N[C@H]1CC[C@H](Nc2cc(Nc3ccc(S(=O)(=O)c4ccccc4)cc3)n3ncc(Br)c3n2)CC1` [Example 137], the concentration for half-maximal inhibition (IC50) is 0.717 µM on GST-Chk1 enzyme and 1.06 µM on PDK1 enzyme.
